Measurements from patent US20240174690A1, “ANNULATED 2-AMINO-3-CYANO THIOPHENES AND DERIVATIVES FOR THE TREATMENT OF CANCER” (BOEHRINGER INGELHEIM INTERNATIONAL GMBH, priority 2021, published 2024).
pIC50: −log10 of the molar value. ≈ marks a conversion by molar mass, not a printed value. Like-named read-outs stand apart in the source and are kept apart here.

Tests used:
[1] = system: KRAS G12D-dependent Ba/F3 cells; experiment: Ba/F3 proliferation assay, KRAS G12D; format: cell-based; settings: Mus musculus, BaF3, 72 h, AlamarBlue
Procedure, shortened: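 Proliferation of mutant-KRAS-driven Ba/F3 cells cultured without IL-3 is followed with AlamarBlue after compound addition. Curves are fitted from duplicate wells.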

AsPC-1 cells = experiment: AsPC-1 CTG proliferation assay (120 h) (pancreatic cancer, G12D); format: cell-based; settings: Homo sapiens, ASPC1
Procedure, shortened: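 CellTiter-Glo luminescence, normalised to DMSO wells, measured viability after 120 h compound exposure. Cells were AsPC-1 pancreatic cancer (G12D) plated at 2000 per well in RPMI/10% FCS the day before dosing. IC50 derived by four-parameter regression.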

SAS cells = experiment: SAS CTG proliferation assay (120 h) (HNSCC, wt amplified); format: cell-based
Procedure, shortened: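 Viability measured by CellTiter-Glo luminescence, normalized to DMSO wells, after 120 h compound treatment of SAS cells. Cells grown in DMEM:F12 plus 10% FCS at 300 cells per well, dosed the day after seeding. Four-parameter fit gives IC50.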

[2] = Solubility measurement (DMSO solution method), McIlvaine buffer pH 4.5 or 6.8; format: physicochemical; settings: aqueous buffer, kinetic from dmso stock, DMSO stock diluted to 250 μM, 24 h shaking at ambient temperature
Procedure, shortened: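 Filtrate concentration by LC-UV, calibrated to a known-concentration reference dissolved completely in acetonitrile/water (1:1). Samples came from 250 µM final dilutions of DMSO stock in pH 4.5 or 6.8 McIlvaine buffer, shaken 24 h at ambient temperature, then filtered.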

[3] = Caco-2 assay (permeability PappAB, PappBA, efflux ratio); format: in vitro ADME; settings: human, Caco-2, 10 μM test compound, pH 7.4; for efflux ratio at 90 min, 10 μM: efflux ratio PappBA/PappAB, read-out: Caco ER; for Papp A→B at 90 min, 10 μM: apical to basolateral
Procedure, shortened: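 Bidirectional permeability (apical-to-basolateral and reverse) through polarized Caco-2 monolayers, BSA 0.25% on each side, 37 °C. Donor and receiver sampled at 0-90 min after 25-30 min preincubation, analysed by HPLC/MS/MS. Apparent permeabilities derived from transfer rate normalised to area and t=0 donor concentration; ER taken as PappBA over PappAB.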

[4] = McIlvaine buffer pH 4.5, read-out: solubility pH 4.5
[5] = McIlvaine buffer pH 6.8, read-out: solubility pH 6.8

| Compound | pIC50 [1] | pIC50 (AsPC-1 cells) | pIC50 (SAS cells) | solubility at 24 h [2, 4] | solubility at 24 h [2, 5] | efflux ratio at 90 min, 10 μM [3] | Papp A→B at 90 min, 10 μM [3] |
| --- | --- | --- | --- | --- | --- | --- | --- |
| C[C@H](Oc1cc(-c2ccn(C3CC3)n2)nc(-c2noc3c2CCC[C@@]32CCCc3sc(N)c(C#N)c32)n1)[C@@H]1CCCN1C [II-98] | 7.16 | 5.48 | 7.52 | 83 µg/mL (≈ 139 µM) | < 1 µg/mL | 1.5 | – |
| CO[C@@H]1C[C@@H]([C@H](C)Oc2cc(-c3cnn(C)n3)nc(-c3noc4c3CCC[C@@]43CCCc4sc(N)c(C#N)c43)n2)N(C)C1 [II-62] | 7.41 | 5.04 | 7.30 | > 129 µg/mL | < 1 µg/mL | 0.3 | 19 ×10⁻⁶ cm/s |
| C[C@H](Oc1cc(-c2ccn(C3COC3)n2)nc(-c2noc3c2CCC[C@@]32CCCc3sc(N)c(C#N)c32)n1)[C@@H]1CCCN1C [II-109] | 7.10 | 5.42 | 7.70 | 117 µg/mL (≈ 191 µM) | 61 µg/mL (≈ 99.5 µM) | 7.4 | 3.5 ×10⁻⁶ cm/s |
| CC(=O)N1CC=C(c2cc(O[C@@H](C)[C@@H]3CCCN3C)nc(-c3noc4c3CCC[C@@]43CCCc4sc(N)c(C#N)c43)n2)CC1 [II-81] | 6.99 | 5.31 | 7.29 | 114 µg/mL (≈ 186 µM) | 84 µg/mL (≈ 137 µM) | 23 | 2 ×10⁻⁶ cm/s |
| C[C@H](Oc1cc(C2COCCO2)nc(-c2noc3c2CCC[C@@]32CCCc3sc(N)c(C#N)c32)n1)[C@@H]1CCCN1C (some centres unmarked) [II-95] | 7.09 | 5.48 | 5.29 | > 134 µg/mL | > 121 µg/mL | 2.2 | 12 ×10⁻⁶ cm/s |
| C[C@H](O)Cn1ccc(-c2cc(O[C@@H](C)[C@@H]3CCCN3C)nc(-c3noc4c3CCC[C@@]43CCCc4sc(N)c(C#N)c43)n2)n1 [II-112] | 7.38 | 5.65 | 7.27 | > 139 µg/mL | 121 µg/mL (≈ 197 µM) | 5.6 | 5.9 ×10⁻⁶ cm/s |
| C[C@H](Oc1cc(N2CCNC[C@]23CCOC3)nc(-c2noc3c2CCC[C@@]32CCCc3sc(N)c(C#N)c32)n1)[C@@H]1CCCN1C [II-50] | 8.15 | 6.85 | 7.39 | > 144 µg/mL | > 135 µg/mL | 111 | 0.3 ×10⁻⁶ cm/s |
| C[C@H](Oc1cc(-n2cncc3ccnc2-3)nc(-c2noc3c2CCC[C@@]32CCCc3sc(N)c(C#N)c32)n1)[C@@H]1CCCN1C [II-105] | 7.43 | 5.88 | 7.26 | 3 µg/mL (≈ 4.94 µM) | < 1 µg/mL | 1.1 | < 10 ×10⁻⁶ cm/s |
| C[C@H](Oc1cc(N2C[C@H](C)N[C@@H](C)C2)nc(-c2noc3c2CCC[C@@]32CCCc3sc(N)c(C#N)c32)n1)[C@@H]1CCCN1C [II-56] | 7.70 | 6.42 | 5.85 | > 144 µg/mL | > 146 µg/mL | 2.3 | 7.5 ×10⁻⁶ cm/s |
| C[C@H](Oc1cc(N2CC[C@H](N(C)C)C2)nc(-c2noc3c2CCC[C@@]32CCCc3sc(N)c(C#N)c32)n1)[C@@H]1CCCN1C [II-49] | 7.80 | 6.29 | 5.93 | > 141 µg/mL | 114 µg/mL (≈ 189 µM) | 10.8 | 4.7 ×10⁻⁶ cm/s |
| C[C@H](Oc1cc(N2C[C@H](C)N[C@@H](C)C2)nc(-c2onc3c2CCC[C@@]32CCCc3sc(N)c(C#N)c32)n1)[C@@H]1CCCN1C [I-6] | 7.85 | 5.77 | 5.46 | > 147 µg/mL | > 144 µg/mL | 15 | 2.9 ×10⁻⁶ cm/s |
| C[C@H](Oc1cc(-c2ccc(N)nc2)nc(-c2noc3c2CCC[C@@]32CCCc3sc(N)c(C#N)c32)n1)[C@@H]1CCCN1C [II-101] | 6.81 | 5.52 | 6.89 | 88 µg/mL (≈ 151 µM) | 2 µg/mL (≈ 3.43 µM) | 7 | 2 ×10⁻⁶ cm/s |
| C[C@H](Oc1cc(-n2cc(Cn3cncn3)nn2)nc(-c2noc3c2CCC[C@@]32CCCc3sc(N)c(C#N)c32)n1)[C@@H]1CCCN1C [II-124] | 7.24 | 5.68 | 7.17 | > 148 µg/mL | 108 µg/mL (≈ 169 µM) | 33.7 | 1 ×10⁻⁶ cm/s |
| CO[C@@H]1C[C@@H]([C@H](C)Oc2cc(-n3ccnc3)nc(-c3noc4c3CCC[C@@]43CCCc4sc(N)c(C#N)c43)n2)N(C)C1 [II-58] | 7.35 | 5.19 | 6.47 | > 124 µg/mL | 2 µg/mL (≈ 3.41 µM) | 1.2 | 13 ×10⁻⁶ cm/s |
| Cc1cn(C)nc1-c1cc(O[C@@H](C)[C@@H]2CCCN2C)nc(-c2noc3c2CCC[C@@]32CCCc3sc(N)c(C#N)c32)n1 [II-68] | 7.11 | 5.49 | 6.21 | 79 µg/mL (≈ 135 µM) | 5 µg/mL (≈ 8.55 µM) | 1.2 | 5.8 ×10⁻⁶ cm/s |
| CO[C@@H]1C[C@@H]([C@H](C)Oc2cc(-c3ccn(C)n3)nc(-c3noc4c3CCC[C@@]43CCCc4sc(N)c(C#N)c43)n2)N(C)C1 [II-91] | 7.19 | 5.65 | 7.15 | 118 µg/mL (≈ 196 µM) | < 1 µg/mL | 1.6 | 9 ×10⁻⁶ cm/s |
| C[C@H](Oc1cc(N2CCNC3(CC3)C2)nc(-c2noc3c2CCC[C@@]32CCCc3sc(N)c(C#N)c32)n1)[C@@H]1CCCN1C [II-54] | 9.00 | 7.17 | 6.63 | > 134 µg/mL | > 122 µg/mL | – | < 1.1 ×10⁻⁶ cm/s |
| C[C@H](Oc1cc(-n2ccnc2)nc(-c2noc3c2CCC[C@@]32CCCc3sc(N)c(C#N)c32)n1)[C@@H]1C[C@@H](F)CN1C [II-120] | 6.83 | 5.45 | 6.31 | 106 µg/mL (≈ 184 µM) | < 1 µg/mL | 1.5 | 8 ×10⁻⁶ cm/s |
| C[C@H](Oc1cc(-c2cc[nH]n2)nc(-c2noc3c2CCC[C@@]32CCCc3sc(N)c(C#N)c32)n1)[C@@H]1CCCN1C [II-71] | 7.39 | 5.78 | 7.33 | > 112 µg/mL | 82 µg/mL (≈ 147 µM) | 63.3 | 0.5 ×10⁻⁶ cm/s |
| C[C@H](Oc1cc(-c2cnsc2)nc(-c2noc3c2CCC[C@@]32CCCc3sc(N)c(C#N)c32)n1)[C@@H]1CCCN1C [II-111] | 7.34 | 5.55 | 7.24 | 22 µg/mL (≈ 38.3 µM) | < 1 µg/mL | 1.5 | – |
